Measured values from patent publication US20120010272A1, “RNA Interference Mediated Inhibition of Apoptosis Signal-Regulating Kinase 1 (ASK1) Gene Expression Using Short Interfering Nucleic Acid (siNA)” (Merck Sharp & Dohme Corp., priority 2009, published 2012).
[invAb] = inverted abasic unit; m = 2'-O-methyl; r = 2'-OH (RNA); f = 2'-fluoro

Assays:
Assay type in all cases: cell-based
ASK1 mRNA [1] = test: ASK1 mRNA knock-down by siNA in human A549 cells (RNAiMax transfection, Taqman RT-PCR); conditions: for % KD Human: 10 nM siNA, 24 hrs post-transfection, vs non-targeting control, GAPDH-normalized, mean ± S.D.; for % KD Human / % KD ASK-1 10 nM: two experiments; for % KD ASK-1 mRNA at 10 nM: mean ± S.D. (Table 5); for % KD ASK-1 10 nM: mean ± standard deviation (Table 6)
Experimental: A549 (human; ATCC cat #CCL-185): Cells were cultured at 37° C. in the presence of 5% CO2 and grown in Ham's F12K medium with 2 mM L-glutamine adjusted to contain 1.5 g/L sodium bicarbonate and supplemented with fetal bovine serum at a final concentration of 10%, 100 μg/mL of streptomycin, and 100 U/mL penicillin.
(§1) Cells were plated in all wells of a tissue-culture treated, 96-well plate at a final count of 5000 cells/well (A549 cell line) and 3,500 cells/well (Hepal-6 cell line) in 100 μL of the appropriate culture media. The cells were cultured for 24 hours after plating at 37° C. in the presence of 5% CO2.
(§2) After 24 hours, complexes containing siNA and RNAiMax were created as follows: A solution of RNAiMax diluted 33-fold in OPTI-MEM was prepared. In parallel, solutions of the siNAs for testing were prepared to a final concentration of 120 nM in OPTI-MEM. After incubation of RNAiMax/OPTI-MEM solution at room temperature for 5 min, an equal volume of the siRNA solution and the RNAiMax solution were added together for each of the siNAs.
(§3) This solution was incubated at room temperature for 20 minutes. After incubation, 20 uL of the solution was added to each of the relevant wells. The final concentration of siNA in each well was 10 nM and the final volume of RNAiMax in each well was 0.3 ul.
(§4) The time of incubation with the RNAiMax-siNA complexes was 24 hours and there was no change in media between transfection and harvesting, unless otherwise indicated.
(§5) RNA was extracted from a 96-well plate using the TaqMan® Gene Expression Cells-to-CT™ Kit (Cat #4399002) with a modified protocol. Briefly, a 60 uL (1 plate) or 110 uL (2 plates) of the Lysis Solution with DNase I was dispensed into each well of the Lysis Buffer Plate (twin.tec full skirt plate). The lysis buffer and stop plates were stored at 4° C. until the cells were washed.
(§6) The plate was spun at 1100 rpm for 5 minutes. The culture medium was aspirated and discarded from the wells of the culture plate. The lysis was performed automatically using a BioMek FX instrument and method. After the Biomek method was completed, the lysis plate was incubated for 2 min. at room temperature. The lysis plate can be stored for 2 hours at 4° C., or at −20° C. or −80° C. for two months.
(§7) Each well of the reverse transcription plate required 10 uL of 2× reverse transcriptase Buffer, 1 uL of 20× reverse transcription enzyme and 2 uL of nuclease-free water. The reverse transcription master mix was prepared by mixing 2× reverse transcription buffer, 20× reverse transcription enzyme mix, and nuclease-free water. 13 uL of the reverse transcription master mix was dispensed into each well of the reverse transcription plate (semi-skirted). A separate reverse transcription plate was prepared for each cell plate. The plate was loaded onto a Biomek NX or Biomek FX Dual-96 and the Biomek method was run. The program is programmed to automatically added 7 uL of lysate from the cell lysis procedure described above into each well of the reverse transcription plate. The plate is sealed and spun on a centrifuge (1000 rpm for 30 seconds) to settle the contents to the bottom of the reverse transcription plate. The plate is placed in a thermocycler at 37° C. for 60 min, 95° C. for 5 min, and 4° C. until the plate is removed from the thermocycler. Upon removal, if not used immediately, the plate was frozen at −20° C.
(§8) A series of probes and primers were used to detect the various mRNA transcripts of the genes of ASK1, ASK2, and GAPDH in human cell lines and ASK1 and GAPDH in mouse cell lines. All Taqman probes and primers for the experiments were supplied as pre-validated sets by ABI (see Table 2).
(§9) The assays were performed on an ABI 7900 instrument, according to the manufacturer's instructions. A TaqMan Gene Expression Master Mix (provided in the Cells-to-CT™, Applied Biosystems, Cat #4399002) was used. […]

ASK1 mRNA [2] = test: ASK1 mRNA knock-down by siNA in mouse Hepa1-6 cells (RNAiMax transfection, Taqman RT-PCR); conditions: 10 nM siNA, 24 hrs post-transfection, vs non-targeting control, GAPDH-normalized, mean ± S.D., two experiments
Experimental: Hepal-6 (murine; ATCC cat #CRL-1830): Cells were cultured at 37° C. in the presence of 5% CO2 and grown in Dulbecco's modified Eagle's medium (DMEM) with 4 mM L-glutamine adjusted to contain 1.5 g/L sodium bicarbonate and 4.5 g/L glucose and supplemented with 10% of fetal bovine serum, 100 μg/mL of streptomycin, and 100 U/mL penicillin.
as §1, §2, §3, §4, §5, §6, §7, §8, §9

[3] = system: mRNA transcript of human ASK2; test: ASK2 specificity screen: effect of ASK1 siNAs on human ASK2 mRNA in A549 cells; conditions: 1 nM siNA, three independent experiments, mean ± standard deviation
Experimental: A549 cells were plated in all wells of a tissue-culture treated, 96-well plate at a final count of 5,000 cells/well in 100 μL of appropriate culture media. Cells were cultured for 24 hours after plating at 37° C. in the presence of 5% CO2.
as §2, with “follows.” for “follows:”, “siRNAs” for “siNAs”, “12” for “120”, “siNA” for “siRNA”, “siNAs. […] This solution was incubated at room temperature for 20 minutes. After incubation, 20 uL of the solution was added to each of the relevant wells. The final concentration of siNA in each well was 1 nM and the final volume of RNAiMax in each well was 0.3 uL. The time of incubation with the RNAiMax-siNA complexes was 24 hours.” for “siNAs.”
as §5, §6, §7, §8
The assays were performed on an ABI 7900 instrument, according to the manufacturer's instructions. A TaqMan Gene Expression Master Mix (provided in the Cells-to-CT™, Applied Biosystems, Cat #4399002) was used. The PCR reactions were carried out at 50° C. for 2 min, 95° C. for 10 min followed by 40 cycles at 95° C. for 15 secs and 60° C. for 1 min.
The expression level of the gene of interest and % knock-down was calculated using Comparative Ct method:
ΔΔCt=ΔCt(Target siRNA)−ΔCt(NTC)
Relative expression level=2^−ΔΔCt
The non-targeting control siRNA was, unless otherwise indicated, chosen as the value against which to calculate the % knock-down, because it is the most relevant control.
The specificity of these siNAs was also assessed. […]

ASK1 mRNA [4] = test: ASK1 mRNA knock-down by siNA in human A549 cells (RNAiMax transfection, Taqman RT-PCR); conditions: 12 concentrations 0.083 fM to 30 nM, mean ± S.D.

“25376-DC: siNA duplex, sense B GcAccAGAAAuAAuAGAuA TTB, antisense UAUcuAuuAuuucuGGuGcUU (SEQ ID NO: 33/34), human ASK1 target site 2900 (sense GCACCAGAAAUAAUAGAUATT; antisense UAUCUAUUAUUUCUGGUGCUU; chemistry not fully specified)” was tested, and the “% KD Human” value (ASK1 mRNA [1]) was 89 ± 1%, the “% KD ASK-1 mRNA at 10 nM” value (ASK1 mRNA [1]) was 89 ± 1% and the “% KD ASK-1 10 nM” value (ASK1 mRNA [1]) was 89 ± 1%. For the same substance, the “% KD Mouse” value (ASK1 mRNA [2]) was 14 ± 18%, the “% KD ASK-2 1 nM” value [3] was 5 ± 12% and the IC50 (ASK1 mRNA [4]) was 14 ± 4 pM.
With “25379-DC: siNA duplex, sense B cGAuGGAAAuucuAAAAAu TTB, antisense AUUuuuAGAAuuuccAucGUU (SEQ ID NO: 39/40), human ASK1 target site 4507 (sense CGAUGGAAAUUCUAAAAAUTT; antisense AUUUUUAGAAUUUCCAUCGUU; chemistry not fully specified)” the “% KD Human” value (ASK1 mRNA [1]) was 92 ± 0%, the “% KD ASK-1 mRNA at 10 nM” value (ASK1 mRNA [1]) was 92 ± 0% and the “% KD ASK-1 10 nM” value (ASK1 mRNA [1]) was 92 ± 0%. The “% KD Mouse” value (ASK1 mRNA [2]) was 4 ± 3%, the “% KD ASK-2 1 nM” value [3] was −6 ± 4% and the IC50 (ASK1 mRNA [4]) was 9 ± 2 pM.
For “25385-DC: siNA duplex, sense B GGAAGGcuAucAuuGAcuu TTB, antisense AAGucAAuGAuAGccuuccUU (SEQ ID NO: 51/52), human ASK1 target site 4449 (sense GGAAGGCUAUCAUUGACUUTT; antisense AAGUCAAUGAUAGCCUUCCUU; chemistry not fully specified)”, the “% KD Human” value (ASK1 mRNA [1]) was 90 ± 0%, the “% KD ASK-1 mRNA at 10 nM” value (ASK1 mRNA [1]) was 90 ± 0% and the “% KD ASK-1 10 nM” value (ASK1 mRNA [1]) was 90 ± 0%. For the same substance, the “% KD Mouse” value (ASK1 mRNA [2]) was 75 ± 15%, the “% KD ASK-2 1 nM” value [3] was 2 ± 11% and the IC50 (ASK1 mRNA [4]) was 10 ± 3 pM.
For “25387-DC: siNA duplex, sense B cAccAGAAAuAAuAGAuAA TTB, antisense UUAucuAuuAuuucuGGuGUU (SEQ ID NO: 55/56), human ASK1 target site 2901 (sense CACCAGAAAUAAUAGAUAATT; antisense UUAUCUAUUAUUUCUGGUGUU; chemistry not fully specified)”, the “% KD Human” value (ASK1 mRNA [1]) was 87 ± 2%, the “% KD ASK-1 mRNA at 10 nM” value (ASK1 mRNA [1]) was 87 ± 2% and the “% KD ASK-1 10 nM” value (ASK1 mRNA [1]) was 87 ± 2%. For the same substance, the “% KD Mouse” value (ASK1 mRNA [2]) was −17 ± 11%, the “% KD ASK-2 1 nM” value [3] was 4 ± 11% and the IC50 (ASK1 mRNA [4]) was 20 ± 3 pM.
“25389-DC: siNA duplex, sense B GAGAcAAuuuuAAuAuAuA TTB, antisense UAUAuAuuAAAAuuGucucUU (SEQ ID NO: 59/60), human ASK1 target site 1907 (sense GAGACAAUUUUAAUAUAUATT; antisense UAUAUAUUAAAAUUGUCUCUU; chemistry not fully specified)” was tested, and the “% KD Human” value (ASK1 mRNA [1]) was 93 ± 4%, the “% KD ASK-1 mRNA at 10 nM” value (ASK1 mRNA [1]) was 93 ± 4% and the “% KD ASK-1 10 nM” value (ASK1 mRNA [1]) was 93 ± 4%. The “% KD Mouse” value (ASK1 mRNA [2]) was −4 ± 4%, the “% KD ASK-2 1 nM” value [3] was 5 ± 4% and the IC50 (ASK1 mRNA [4]) was 3 ± 0.5 pM.
In the case of “25396-DC: siNA duplex, sense B cAAGcAAAAAGAAAAAGAc TTB, antisense GUCuuuuucuuuuuGcuuGUU (SEQ ID NO: 73/74), human ASK1 target site 3183 (sense CAAGCAAAAAGAAAAAGACTT; antisense GUCUUUUUCUUUUUGCUUGUU; chemistry not fully specified)”, the “% KD Human” value (ASK1 mRNA [1]) is reported as 90 ± 1% and the “% KD Mouse” value (ASK1 mRNA [2]) is reported as 75 ± 1%.
With “25397-DC: siNA duplex, sense B AGccAGuAcuuccGGGAAu TTB, antisense AUUcccGGAAGuAcuGGcuUU (SEQ ID NO: 75/76), human ASK1 target site 1166 (sense AGCCAGUACUUCCGGGAAUTT; antisense AUUCCCGGAAGUACUGGCUUU; chemistry not fully specified)” the “% KD Human” value (ASK1 mRNA [1]) was 60 ± 0% and the “% KD Mouse” value (ASK1 mRNA [2]) was 78 ± 7%.
“25398-DC: siNA duplex, sense B GuGAcAGcAGcuucAuGAA TTB, antisense UUCAuGAAGcuGcuGucAcUU (SEQ ID NO: 77/78), human ASK1 target site 1038 (sense GUGACAGCAGCUUCAUGAATT; antisense UUCAUGAAGCUGCUGUCACUU; sense: DNA at AGT, 2'-fluoro at CU, [invAb] at 5' end, 3' end, backbone not given here; antisense: sugars from the 5' end rrrmfmmmmffmffmffmfmm, backbone not given here)” was tested, and the “% KD Human” value (ASK1 mRNA [1]) was 38 ± 6% and the “% KD Mouse” value (ASK1 mRNA [2]) was 51 ± 2%.
For “25400-DC: siNA duplex, sense B ccAcuGAccGAAAAAucAu TTB, antisense AUGAuuuuucGGucAGuGGUU (SEQ ID NO: 81/82), human ASK1 target site 3660 (sense CCACUGACCGAAAAAUCAUTT; antisense AUGAUUUUUCGGUCAGUGGUU; chemistry not fully specified)”, the “% KD Human” value (ASK1 mRNA [1]) was 86 ± 4% and the “% KD Mouse” value (ASK1 mRNA [2]) was 74 ± 1%.
For “25401-DC: siNA duplex, sense B uccuGGucGAGGccAcAAA TTB, antisense UUUGuGGccucGAccAGGAUU (SEQ ID NO: 83/84), human ASK1 target site 1995 (sense UCCUGGUCGAGGCCACAAATT; antisense UUUGUGGCCUCGACCAGGAUU; sense: DNA at AGT, 2'-fluoro at CU, [invAb] at 5' end, 3' end, backbone not given here; antisense: sugars from the 5' end rrrmfmmffffmmffmmmmmm, backbone not given here)”, the “% KD Human” value (ASK1 mRNA [1]) was 10 ± 16% and the “% KD Mouse” value (ASK1 mRNA [2]) was 21 ± 0%.
